From PubChem BioAssay (NCI)
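Exposure lasted 48 hours, with cells grown in 96-well plates and compounds tested at five concentrations. The concentration for full growth arrest is given as TGI.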

Experiments:
Test in all cases: growth of human tumour cells (NCI), 48 h
[1] = test system: SNB-19 CNS
[2] = test system: CAKI-1 renal
[3] = test system: TK-10 renal
[4] = test system: T-47D breast
[5] = test system: MOLT-4 leukemia
[6] = test system: SK-MEL-5 melanoma
[7] = test system: MCF7 breast
[8] = test system: BT-549 breast
[9] = test system: DU-145 prostate
[10] = test system: ACHN renal
[11] = test system: MALME-3M melanoma
[12] = test system: UO-31 renal
[13] = test system: U251 CNS
[14] = test system: HL-60(TB) leukemia
[15] = test system: SK-MEL-28 melanoma
[16] = test system: SF-539 CNS
[17] = test system: 786-0 renal
[18] = test system: MDA-MB-231 breast

| Structure (SMILES) | TGI [1] [µM] | TGI [2] [µM] | TGI [3] [µM] | TGI [4] [µM] | TGI [5] [µM] | TGI [6] [µM] | TGI [7] [µM] | TGI [8] [µM] | TGI [9] [µM] | TGI [10] [µM] | TGI [11] [µM] | TGI [12] [µM] | TGI [13] [µM] | TGI [14] [µM] | TGI [15] [µM] | TGI [16] [µM] | TGI [17] [µM] | TGI [18] [µM] |
| --- | --- | --- | --- | --- | --- | --- | --- | --- | --- | --- | --- | --- | --- | --- | --- | --- | --- | --- |
| COc1ccc(/C=C/C(=N/NC(=O)N/N=C(/C=C/c2ccc(OC)cc2)C(C)(C)CN2CCCCC2)C(C)(C)CN2CCCCC2)cc1 | 6.4 | 4.33 | 3.67 | 4.1 | 4.18 | 3.01 | 6.26 | 3.58 | > 10 | 3.19 | 3.42 | 2.95 | 3.31 | 3.22 | 2.92 | 4.11 | 3.15 | – |
| NC(=O)C(=CNC(=S)Nc1ccc(Cl)c(Cl)c1)C(N)=O | > 100 | > 100 | > 100 | > 72.9 | > 100 | > 100 | > 100 | – | > 100 | > 100 | > 100 | > 73.6 | > 100 | > 100 | > 100 | > 100 | > 100 | > 100 |
| O=C(OC[C@H]1C[C@H]2C(=O)CCC[C@H]2O1)c1ccccc1 | > 100 | > 100 | > 100 | > 100 | > 100 | > 100 | > 100 | – | > 100 | > 100 | – | > 100 | > 100 | > 100 | > 100 | > 100 | > 100 | > 100 |
| c1cnc2c(c1)-n1cccc1C1(CCSC1)NN2 (stereo unspecified) | > 100 | > 100 | > 100 | – | > 100 | > 100 | – | – | – | > 100 | > 100 | > 100 | > 100 | > 100 | > 100 | > 100 | > 100 | – |
| Cc1cc2oc(-c3ccccc3)c(C)c(=O)c2c2c1OC(C)(C)S2 | > 100 | – | > 100 | – | > 100 | > 100 | – | – | – | > 100 | > 100 | > 100 | > 100 | 38.4 | > 100 | > 100 | > 100 | – |
| Cc1ccc(N=C2S/C(=C3/CCC=C3N3CCOCC3)N(c3ccc(Cl)cc3)C2=Nc2ccc(C)cc2)cc1 | > 100 | – | > 100 | > 100 | > 100 | > 100 | > 100 | > 100 | – | > 100 | > 100 | > 100 | > 100 | > 100 | > 100 | – | > 100 | > 100 |
| CCOC(=O)C1C(c2ccc(O)c(OC)c2)c2c([nH][nH]c2=O)CC1(C)O (stereo unspecified) | > 100 | > 100 | > 100 | > 100 | > 100 | > 100 | > 100 | – | > 100 | > 100 | > 100 | > 100 | > 100 | > 100 | > 100 | > 100 | > 100 | > 100 |
| Cc1ccc(NCC(=O)N2CC(=O)Nc3ccccc32)cc1 | > 100 | > 100 | > 100 | – | > 100 | > 100 | – | – | – | > 100 | > 100 | > 100 | > 100 | > 100 | > 100 | > 100 | > 100 | – |
| O=[N+]1ON=C(c2ccccc2)C1=C1C(c2c(-c3ccccc3)no[n+]2[O-])=NON1[O-] | > 100 | 56.7 | > 100 | – | > 100 | > 100 | 7.51 | – | > 100 | 27.4 | 51.3 | 48.6 | – | 7.52 | > 100 | 73.4 | 31.2 | 95.9 |
| NNC1=N/C(=C\c2ccco2)C(=O)N1 | > 100 | > 100 | > 100 | > 100 | > 100 | > 100 | > 100 | > 100 | – | > 100 | > 100 | > 100 | > 100 | > 100 | > 100 | > 100 | > 100 | > 100 |
| CC1(C)OCC(C2OC(OC(=O)c3ccc([N+](=O)[O-])cc3)C3OC(C)(C)OC23)O1 (stereo unspecified) | > 100 | > 100 | > 100 | – | > 100 | > 100 | > 100 | > 100 | > 100 | > 100 | > 100 | > 100 | > 100 | – | > 100 | > 100 | > 100 | > 100 |
| Cc1ccc2c(c1)C1(OC(=O)c3ccccc31)c1ccc(F)cc1O2 (stereo unspecified) | – | > 100 | > 100 | – | 54.9 | > 100 | – | – | – | – | > 100 | 75.8 | – | 51 | – | – | > 100 | – |
| O=C(COc1ccc(OCC(=O)NNC2=NC(c3cc(F)c(Cl)cc3Cl)CS2)c(Cl)c1)NNC1=NC(c2cc(F)c(Cl)cc2Cl)CS1 (stereo unspecified) | > 100 | – | > 100 | – | > 100 | – | 34.6 | 66.1 | 59.8 | > 100 | > 100 | > 100 | 28.5 | > 100 | 86.9 | 64.5 | > 100 | 54.5 |
| CC(=O)OC1CC2(C)OC(Cc3ccccc32)O1 (stereo unspecified) | > 100 | – | > 100 | – | > 100 | – | – | – | – | > 100 | > 100 | > 100 | > 100 | > 100 | > 100 | > 100 | > 100 | – |
| COc1ccc(N2C(=O)c3c(c4[nH]c5ccc(OC)cc5c4c4ccc(C(C)(C)C)cc34)C2=O)cc1 | > 100 | – | > 100 | – | > 100 | > 100 | – | – | – | > 100 | > 100 | > 100 | > 100 | > 100 | > 100 | > 100 | > 100 | – |
| CCN1C(=O)/C(=C2\SC(c3ccccc3)(c3ccccc3)c3ccccc32)SC1=S | > 100 | – | > 100 | – | > 100 | > 100 | > 100 | > 100 | > 100 | > 100 | > 100 | > 100 | > 100 | – | > 100 | > 100 | > 100 | > 100 |
| N#CCCN(CCC#N)c1ccc(C(N=Nc2ccccc2)=Nc2ccc(Cl)cc2)cc1 | > 100 | > 100 | > 100 | > 100 | > 100 | > 100 | > 100 | > 100 | > 100 | > 100 | – | > 100 | > 100 | – | > 100 | > 100 | > 100 | > 100 |
| CCOC(=O)C(=[N+]=[N-])C(=O)CN1C(=O)C2CC(C)=C(C)CC2C1O (stereo unspecified) | > 100 | – | > 100 | – | > 100 | > 100 | > 100 | > 100 | > 100 | > 100 | > 100 | > 100 | > 100 | > 100 | > 100 | > 100 | > 100 | – |
| CSc1cc(Br)ccc1-n1c(C(=O)c2ccccc2)c(SC)n(-c2ccccc2)c1=O | > 100 | > 100 | > 100 | – | > 100 | > 100 | > 100 | > 100 | – | > 100 | – | > 100 | > 100 | – | > 100 | > 100 | > 100 | > 100 |
| CC(Oc1ccc(OCC2CCCCC2)cc1)C(=O)NCCO (stereo unspecified) | > 100 | – | > 100 | – | > 100 | > 100 | – | – | – | > 100 | > 100 | > 100 | > 100 | > 100 | > 100 | > 100 | > 100 | – |
| O=c1c(C2=NCCC2)c(-c2ccc[nH]2)[nH]n1-c1ccccc1 | > 100 | > 100 | > 100 | > 100 | > 100 | > 100 | – | > 100 | > 100 | > 100 | > 100 | > 100 | > 100 | > 100 | > 100 | > 100 | > 100 | > 100 |
| O=C(CC(C(=O)c1cccs1)c1cccs1)c1ccccc1Cl (stereo unspecified) | > 100 | > 100 | > 100 | > 100 | > 100 | > 100 | > 100 | – | > 100 | > 100 | > 100 | > 100 | > 100 | > 100 | > 100 | > 100 | > 100 | > 100 |
| COc1cc(CNC2=NCCC2)cc(OC)c1OC | > 100 | > 100 | > 100 | – | > 100 | > 100 | > 100 | > 100 | > 100 | > 100 | > 100 | > 100 | > 100 | > 100 | > 100 | > 100 | > 100 | – |
| COC(CC1(/C=C/O[Si](C(C)C)(C(C)C)C(C)C)C(=O)N(COCC[Si](C)(C)C)c2ccccc21)OC (stereo unspecified) | > 100 | > 100 | > 100 | > 100 | > 100 | > 100 | – | – | > 100 | > 100 | – | > 100 | > 100 | – | 60 | 58.7 | > 100 | > 100 |
| CCC12CCCNC1c1c(n(C)c3ccccc13)C(C(=O)OC)C2 (stereo unspecified) | > 275 | 77.3 | > 275 | – | > 275 | 82.5 | – | – | – | 257 | > 275 | – | > 275 | > 275 | > 275 | > 275 | > 275 | – |
| O=C1C(Cl)C2(CC(/C=C/c3ccccc3O)=NN2c2cccc(S(=O)(=O)O)c2)N1c1nc2ccccc2s1 (stereo unspecified) | > 100 | – | 26 | 37.4 | 47.7 | 26.1 | 31.8 | 34.9 | – | 53 | 27.1 | 26.2 | 46.9 | 14.5 | 71.2 | 36.5 | 30 | 74.6 |
| Cc1ccc(Nc2[nH]c(=O)[nH]c(=O)c2C)cc1Cl | > 100 | > 100 | > 100 | > 100 | – | > 100 | 59.7 | > 100 | – | > 100 | > 100 | > 100 | > 100 | – | > 100 | > 100 | > 100 | > 100 |
| Cc1[nH]n(C(=N)N)c(=O)c1CCO | > 100 | > 100 | > 100 | – | – | > 100 | > 100 | > 100 | > 100 | > 100 | > 100 | > 100 | > 100 | > 100 | > 100 | > 100 | 3.08 | > 100 |
| CN(C)c1ccc(-c2c(C#N)c(O)n(NS(=O)(=O)c3ccccc3)c(=O)c2C#N)cc1 | > 100 | > 100 | > 100 | – | > 100 | > 100 | > 100 | > 100 | – | > 100 | > 100 | – | > 100 | > 100 | > 100 | > 100 | > 100 | > 100 |
| Cc1cc(C)n2c(-c3ccccc3)c(C)cc2n1 | > 100 | > 100 | > 100 | – | – | > 100 | – | – | – | > 100 | > 100 | > 100 | > 100 | 50.4 | > 100 | 73.4 | > 100 | – |
